{
  "source": "patent US7619059B2",
  "about": "“Bimolecular optical probes” (Life Technologies Corporation, priority 2003, dated 2009)",
  "key": {"GSK3α": {"target": "T1, GSK3α (Homo sapiens, UniProt P49840)", "T1 construct": "purchased PV3322/30387A", "T1 sequence (P49840 whole entry)": "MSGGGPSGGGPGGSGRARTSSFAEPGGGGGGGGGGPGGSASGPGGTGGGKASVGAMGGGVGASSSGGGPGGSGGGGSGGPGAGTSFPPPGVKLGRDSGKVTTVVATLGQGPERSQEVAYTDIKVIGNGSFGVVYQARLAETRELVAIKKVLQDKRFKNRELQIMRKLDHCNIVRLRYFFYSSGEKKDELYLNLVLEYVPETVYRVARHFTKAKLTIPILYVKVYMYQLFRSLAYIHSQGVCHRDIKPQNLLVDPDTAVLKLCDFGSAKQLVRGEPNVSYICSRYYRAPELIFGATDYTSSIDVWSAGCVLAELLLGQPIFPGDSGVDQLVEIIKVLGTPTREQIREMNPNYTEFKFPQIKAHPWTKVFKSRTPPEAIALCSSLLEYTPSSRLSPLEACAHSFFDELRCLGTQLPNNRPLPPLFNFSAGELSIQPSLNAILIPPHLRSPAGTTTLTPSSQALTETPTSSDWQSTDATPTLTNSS", "experiment": "Z′-Lyte TR-FRET kinase assay, GSK3α", "format": "biochemical", "settings": "400 nM substrate, 0.03 μg/ml GSK3α; read-out: ATP EC50 (ATP titration) GSK3α", "experimental": "To each well of a 384 well plate, 5 μl of 2X substrate/2X enzyme in 1X kinase reaction buffer was added. Then, 5 μl of 2X ATP in 1X kinase reaction buffer was added in order to initiate the kinase reaction. The plate was briefly mixed and the 10 μl kinase reaction was allowed to incubate for 60 minutes at room temperature. To each well, 5 μl of 3X chymotrypsin in development buffer B was added. The plate was briefly mixed and the 15 μl reaction was allowed to incubate for 60 minutes at room temperature. To each well, 5 μl of 4X Tb-labeled SA in stop buffer was added. The plate was briefly mixed and the 20 μl reactions read. […] The dichroic 2 mirror was used. A TR-FRET ratio=Em520/Em495 was calculated. An ATP titration was performed in order to determine the optimal amount of ATP to use per well for subsequent IC50 experiments. […] The assay was carried out using the general assay procedure listed above except with the following modification: a 2X ATP titration series was diluted 2 fold in 1X kinase buffer. […] The three fold titration of compounds was performed in a separate 384 well plate in 2X substrate (800 nM, therefore 1X=400 nM)/2X ATP (20 μM, therefore 1X=10 μM) in 1X kinase buffer/3% DMSO. Then 5 μl of the titration series of each compound was added to the appropriate wells in the 384 well assay plate. […]"}, "GSK3β": {"target": "T2, GSK3β (Homo sapiens, UniProt P49841)", "T2 construct": "purchased PV3270/29135A", "T2 sequence (P49841 whole entry)": "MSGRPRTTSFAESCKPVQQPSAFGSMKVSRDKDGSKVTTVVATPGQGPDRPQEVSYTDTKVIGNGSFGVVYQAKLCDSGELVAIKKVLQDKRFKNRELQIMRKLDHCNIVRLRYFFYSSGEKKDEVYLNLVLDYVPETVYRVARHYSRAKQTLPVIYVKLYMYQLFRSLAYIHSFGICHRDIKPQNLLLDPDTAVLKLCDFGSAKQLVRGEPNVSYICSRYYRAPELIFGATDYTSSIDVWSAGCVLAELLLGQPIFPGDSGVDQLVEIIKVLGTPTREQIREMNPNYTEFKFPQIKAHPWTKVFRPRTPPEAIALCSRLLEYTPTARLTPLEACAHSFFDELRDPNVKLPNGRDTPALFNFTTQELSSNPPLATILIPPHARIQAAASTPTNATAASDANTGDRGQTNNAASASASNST", "experiment": "Z′-Lyte TR-FRET kinase assay, GSK3β", "format": "biochemical", "settings": "400 nM substrate, 0.25 μg/ml GSK3β; read-out: ATP EC50 (ATP titration) GSK3β"}},
  "data": [
    {"compound": "Nc1ncnc2c1ncn2[C@@H]1O[C@H](COP(=O)(O)OP(=O)(O)OP(=O)(O)O)[C@@H](O)[C@H]1O", "note": "[ATP]", "values": [
      {"measurement": "EC50", "setting": "GSK3α", "value": "~10", "unit": "µM"},
      {"measurement": "EC50", "setting": "GSK3β", "value": "~10", "unit": "µM"}
    ]}
  ]
}
